{
  "source": "paper PMC7600788",
  "about": "“Sequence Permutation Generates Peptides with Different Antimicrobial and Antibiofilm Activities” (Pharmaceuticals, 2020)",
  "key": {"[1]": {"tested_on": "S. aureus Mu50", "format": "cell-based, Staphylococcus aureus", "details": "Mu50", "experimental": "(§1) The antimicrobial activity spectrum of the WW peptide series was performed on a panel of Gram-positive and -negative bacteria using the standard broth micro-dilution method with minor modifications as described. […] There was a small change in the case of Pseudomonas aeruginosa and Acinetobacter baumannii up to two-fold. Four-fold changes were found for Staphylococcus aureus, Staphylococcus epidermidis, Escherichia coli, and Bacillus subtilis. However, we observed over eight-fold MIC changes for Klebsiella pneumoniae and vancomycin-resistant enterococcus (VRE). […] We also observed more than eight-fold changes in minimal bacterial killing concentrations.\n(§2) The antibacterial activity of peptides was evaluated using a standard broth microdilution protocol with minor modifications as previously described. In brief, logarithmic phase bacterial cultures (i.e., optical density at 600 nm ≈ 0.5) were diluted to OD600~0.001 and partitioned into a 96-well polystyrene microplate at 90 μL per well. After treatment with 10 μL of peptide solutions two-fold diluted to various concentrations, microplates were incubated at 37 °C overnight and read on a ChroMate 4300 Microplate Reader at 630 nm (GMI, Ramsey, MN). […] Minimal bactericidal concentration (MBC) was determined by plating the clear wells at MIC or above. The peptide concentration that caused no bacterial growth on the petri dish is MBC."}, "[2]": {"tested_on": "B. subtilis 167", "format": "cell-based, Bacillus subtilis", "details": "167", "experimental": "as §1, §2"}, "[3]": {"tested_on": "E. faecium VRE", "format": "cell-based", "details": "VRE", "experimental": "as §1, §2"}, "[4]": {"tested_on": "E. coli K12", "format": "cell-based, Escherichia coli", "details": "K12", "experimental": "as §1, §2"}, "[5]": {"tested_on": "P. aeruginosa PAO1", "format": "cell-based, Pseudomonas aeruginosa", "details": "PAO1", "experimental": "as §1, §2"}, "[6]": {"tested_on": "A. baumannii B28-16", "format": "cell-based, Acinetobacter baumannii", "details": "B28-16", "experimental": "as §1, §2"}, "[7]": {"tested_on": "S. aureus USA300", "format": "cell-based, Staphylococcus aureus", "details": "USA300", "experimental": "as §2"}, "[8]": {"tested_on": "E. coli ATCC 25922", "format": "cell-based, Escherichia coli", "details": "ATCC 25922", "experimental": "(§3) To gain additional insight, we also compared the effects of physiological saline and human serum on the antibacterial activities of WW291-WW298 using both E. coli and S. aureus (Table 3). In our assays, salts and serum were present during the entire course of the experiment. […] Thus, WW295 and WW298 stand out in terms of activity robustness (bold in Table 3).\nas §2"}, "[9]": {"tested_on": "S. aureus USA300 LAC", "format": "cell-based, Staphylococcus aureus", "details": "USA300", "experimental": "as §3, §2"}, "[10]": {"tested_on": "chicken red blood cells", "test": "Hemolytic assay", "format": "cell-based", "experimental": "(§4) Hemolytic assays of peptides were performed as previously described. Briefly, human red blood cells (hRBCs) obtained from UNMC Blood Bank, or chicken or porcine blood cells purchased from commercial sources as previously described, were washed three times with phosphate buffer saline (PBS) and diluted to a 2% solution (V/v). After peptide treatment, incubation at 37 °C for one hour, and centrifugation at 13,000 rpm, aliquots of the supernatant were carefully transferred to a fresh 96-well microplate. The amount of hemoglobin released was measured at 545 nm. The percent lysis was calculated by assuming 100% release when human blood cells were treated with 2% Triton X-100, and 0% release when incubated with PBS buffer. The peptide concentration that caused 50% lysis of hRBCs is defined as HC50."}, "[11]": {"tested_on": "human red blood cells", "test": "Hemolytic assay", "format": "cell-based", "details": "red cells of human", "experimental": "as §4"}, "[12]": {"tested_on": "monkey kidney Vero E6 cells", "format": "cell-based", "experimental": "Peptides were assayed for potential in vitro toxicity against human keratinocytes (HaCaT) and THP-1 cells as previously described. THP-1 monocytes were differentiated into macrophages by adding 30 ng/mL of phorbol 12-myristate 13-acetate (PMA; Sigma-Aldrich) to RPMI 1640 supplemented with 10% fetal calf serum culture (FCS) medium for 16 h. Briefly, cells were seeded at a density of 3 × 10^4 per well in a tissue culture 96-well plate in DMEM/RPMI supplemented with 10% fetal bovine serum (FBS), and incubated at 37 °C in a 5% CO2 atmosphere for 24 h. African green monkey kidney Vero E6 cells were cultivated in EMEM in the same manner. Before antimicrobial treatment, wells were replaced with serum free media and treated with peptides at different concentrations for one hour. After incubation, the cells were washed and incubated with 100 μL of DMEM media containing 20 μL of 3-(4,5-dimethylthiazol-2-yl)-5-(3-carboxymethoxyphenyl)-2-(4-sulfophenyl)-2H-tetrazolium (MTS) reagent for two hours at 37 °C. […] Absorbance readings at 492 nm were taken using a ChroMate microplate reader (GMI, Ramsey, MN, USA)."}, "[13]": {"tested_on": "K. pneumonia ATCC 13883", "details": "cited from earlier work", "description": "Table 2 Antibacterial activities of the WW peptides against various bacteria. | column: Minimal Inhibitory Concentration (MIC, μM) / KP ^a"}, "[14]": {"tested_on": "E. coli ML35p", "test": "Simultaneous outer and inner membrane permeation (nitrocefin / ONPG)", "format": "cell-based, Escherichia coli", "details": "3.1 µM", "description": "To confirm the mechanism of action, we also performed membrane permeation using a reporter strain of E. coli ML35p. This strain enabled simultaneous monitoring of membrane permeation of both the inner and outer membranes of Gram-negative bacterium E. coli. Both WW295 and WW298 were included in the experiment. […] This is indicated by the sharp development of absorbance at 490 nm for nitrocefin (panel A) and at 420 nm for ONPG (panel B).\nThe E. coli ML-35p strain was utilized to probe the permeation of both the outer membrane (OM) and inner membrane (IM). This strain was engineered to have two membrane reporters. Nitrocefin is used for detection of OM permeabilization. Nitrocefin is excluded from the periplasm. […] The chromogenic cleavage product was spectrophotometrically monitored at 490 nm. […] However, permeabilization of the IM helps ONPG to enter cytoplasm and get cleaved by cytoplasmic β-galactosidase into o-nitrophenol, which can be detected spectrophotometrically at 420 nm. […] Absorbances at both 490 and at 420 nm were monitored using FLUOstar Omega (BMG, Labtech, NC, USA) simultaneously. After shaking at 100 rpm, readings were taken every 2 min for a total of 40 min at 37 °C. Data were analyzed using the MARS data analysis software provided by the manufacturer and representative plots were made using the GraphPad Prism 7 software."}, "[15]": {"tested_on": "S. aureus USA300 LAC", "test": "Membrane depolarization, DiBAC4(3)", "format": "cell-based, Staphylococcus aureus", "details": "12.5 µM", "experimental": "Bacteria surfaces are negative and cationic peptides are able to neutralize the negative charge, thereby reducing membrane potential. To test this possibility, we evaluated the peptides against S. aureus USA300 LAC using a fluorescent indicator dye, the DiBAC4(3) (Figure 5).\nThe overnight culture of S. aureus USA300 LAC was grown in TSB media to the exponential phase. Cells were then pelleted and washed with PBS twice, and re-suspended in twice the volume of PBS containing 25 mM glucose for 15 min at 37 °C. For membrane depolarization measurements, 250 nM (final concentration) of the dye DiBAC4(3) (bis-(1,3-dibutylbarbituric acid) trimethine oxonol (ANASPEC, Fremont, CA, USA) was added, and vortexed gently. Ninety microliters of the energized bacteria solution were then added in a 96-well microtiter plate (Corning COSTAR). The plate was immediately placed into a FLUOstar Omega (BMG LABTECH Inc., Cary, NC, USA) microplate reader and fluorescence was measured for 20 min. Once the readings are stabilized, 10 μL of peptide solution were added and the fluorescence readings were continued for another 40 min. Measurements were done at an excitation and emission wavelengths of 485 and 520 nm, respectively. Triton X-100 (0.1%) was included as a positive control."}, "[16]": {"tested_on": "S. aureus USA300 LAC", "test": "Inhibition of biofilm attachment (XTT)", "format": "cell-based, Staphylococcus aureus", "details": "12.5 µM; 1 h, XTT", "description": "Antimicrobial effects of the peptides are different on diverse forms of bacteria. The free and motile forms cultivated in laboratories are the planktonic bacteria onto which the peptides and antibiotics can have direct effects. However, the activity of the microbicides can be reduced to the biofilm forms where bacteria are less exposed and hidden inside the shield. The development of the biofilms starts with the attachment of the individual cells on the substratum followed by biofilm growth and maturation into more solid biomass. We tested the ability of WW295 and WW298 in fighting the biofilms of S. aureus USA300 LAC at the two stages. […] These 96-well commercial plates were pre-treated commercially with tissue culture to enhance cell adhesion.\nThis experiment was performed to measure the ability of the peptide to inhibit bacterial attachment, the initial step for biofilm formation. In short, an overnight culture of S. aureus USA300 was grown in TSB media to an optical density (600 nm) of ∼1.0. […] Live cells in the biofilms were then quantitated using XTT [2,3-bis(2-methyloxy-4-nitro-5-sulfophenyl)-2H-tertazolium-5-carboxanilide] assay by following the manufacturer’s instructions with modifications. […] Absorbance at 450 nm (only media with XTT containing wells served as the blank) was obtained using a Chromate^TM microtiter plate reader. […]"}, "[17]": {"tested_on": "S. aureus USA300 LAC", "test": "Disruption of 24 h established biofilms (XTT)", "format": "cell-based, Staphylococcus aureus", "details": "24 h treatment", "experimental": "We also compared the effects of the peptides on established biofilms (24 h). […] When cells are alive (in the absence of peptide), the cell-permeant calcein-AM dye could enter the cells and gave green color as a consequence of the removal of acetoxymethyl (AM) esters by intracellular esterase (Figure 7A). When the cells were dead due to membrane damage by the peptide, the red dye ethidium homodimer (non-membrane permeable) could enter the cell and become red by binding to nucleic acids (Figure 7B).\nThe antibiofilm activity of the peptide against 24 h established biofilms was evaluated as previously described. In short, S. aureus USA300 LAC (10^5 CFU/mL) was made from exponential phase bacteria in TSB media and 180 μL were distributed to each well of the microtiter plate (Corning Costar Cat No. 3595, Amsterdam, The Netherlands). The plates were incubated at 37 °C for 24 h to form a biofilm. Culture treated with water served as a positive control while media without bacterial inoculation served as the negative control. Media were then pipetted out and the attached biofilms were washed with 1× PBS to remove the planktonic bacteria. Each well of the plate was then filled with 20 μL of 10× peptide solution and 180 μL of fresh TSB media and the plates were further incubated at 37 °C for 24 h. Media were then pipetted out and the wells were washed with 1× PBS to remove planktonic cells. The live cells in biofilms were estimated by XTT assay as mentioned above."}},
  "note": "No end group written: not given here.",
  "data": [
    {"compound": "WWWLRKIW [WW291]", "values": [
      {"measurement": "Minimal Inhibitory Concentration (MIC), SA", "setting": "[1]", "value": 3.1, "unit": "µM"},
      {"measurement": "Minimal Inhibitory Concentration (MIC), BS", "setting": "[2]", "value": 6.25, "unit": "µM"},
      {"measurement": "Minimal Inhibitory Concentration (MIC), VRE", "setting": "[3]", "value": 25, "unit": "µM"},
      {"measurement": "Minimal Inhibitory Concentration (MIC), EC", "setting": "[4]", "value": "6.2 to 12.5", "unit": "µM"},
      {"measurement": "Minimal Inhibitory Concentration (MIC), PA", "setting": "[5]", "value": 50, "unit": "µM"},
      {"measurement": "Minimal Inhibitory Concentration (MIC), AB", "setting": "[6]", "value": 6.25, "unit": "µM"},
      {"measurement": "MBC, USA300", "setting": "[7]", "value": 6.2, "unit": "µM"},
      {"measurement": "MIC, +150 mM NaCl", "setting": "[8]", "value": 12.5, "unit": "µM"},
      {"measurement": "MIC, +10% Human Serum", "setting": "[8]", "value": ">25", "unit": "µM"},
      {"measurement": "MIC, TSB", "setting": "[8]", "value": "6.2 to 12.5", "unit": "µM"},
      {"measurement": "MIC, +150 mM NaCl", "setting": "[9]", "value": 3.1, "unit": "µM"},
      {"measurement": "MIC, +10% Human Serum", "setting": "[9]", "value": 25, "unit": "µM"},
      {"measurement": "MIC, TSB", "setting": "[9]", "value": 3.1, "unit": "µM"},
      {"measurement": "Chicken RBC, concentration that caused 50% red blood cell lysis (HC50)", "setting": "[10]", "value": 50, "unit": "µM"},
      {"measurement": "Human RBC, concentration that caused 50% red blood cell lysis (HC50)", "setting": "[11]", "value": 30, "unit": "µM"},
      {"measurement": "Vero Cells, concentration that caused 50% cell death (LC50)", "setting": "[12]", "value": 100, "unit": "µM"},
      {"measurement": "Minimal Inhibitory Concentration (MIC), KP", "setting": "[13]", "value": 12.5, "unit": "µM"}
    ]},
    {"compound": "CCCCCCCCCC(=O)N[C@@H](Cc1c[nH]c2ccccc12)C(=O)N[C@H](CC(N)=O)C(=O)N[C@@H](CC(=O)O)C(=O)N[C@@H]1C(=O)NCC(=O)N[C@@H](CCCN)C(=O)N[C@@H](CC(=O)O)C(=O)N[C@H](C)C(=O)N[C@@H](CC(=O)O)C(=O)NCC(=O)N[C@H](CO)C(=O)N[C@@H]([C@H](C)CC(=O)O)C(=O)N[C@@H](CC(=O)c2ccccc2N)C(=O)O[C@@H]1C", "note": "[daptomycin, reference compound]", "values": [
      {"measurement": "outer and inner membrane permeation (nitrocefin 490 nm, ONPG 420 nm)", "setting": "[14]", "value": "poor in membrane permeation"},
      {"measurement": "membrane depolarization (DiBAC4(3) fluorescence)", "setting": "[15]", "value": "significantly less membrane depolarization"},
      {"measurement": "inhibition of MRSA adherence", "setting": "[16]", "value": "~ 50%"},
      {"measurement": "disruption of established biofilms (24 h)", "setting": "[17]; 3.1 µM", "value": "much less effective than WW298"},
      {"measurement": "disruption of established biofilms (24 h)", "setting": "[17]; 6.25 µM", "value": "eradicating almost all the established biofilm"}
    ]}
  ]
}
